Data from patent US20240166643A1, “IMIDAZO[1,2-A]PYRIDINE COMPOUNDS AND THEIR USE IN THERAPY” (Imperial College Innovations Limited, priority 2020, published 2024).
pEC50, pIC50: −log10 of the molar value. Where two headings read alike, the source gives them in different places. Marks after values point to notes of the source that are not given here.

How the values were obtained:
Shep-ER-N-Myc cell line = assay: CellTiter-Blue assay, Shep-ER-N-Myc with or without MYCN induction; assay type: cell-based, human; details: 72 hours
Excerpt: (§1) Assay (d): CellTiter-Blue® Assay
(§2) Shep-ER-N-Myc cell line (cell type: human neuroblastoma) was sourced from Linda Valentijn, and firstly reported in Valentijn et. al., Cancer Res, 2005, 65(8), 3136-3145. SKNAS-ER-N-Myc cell line (cell type: human neuroblastoma) was sourced from Michael D. Hogarty, and firstly reported in Ushmorov et al., Oncogene, 2008, 27(24), 3424-3434. P-493-6 cell line was sourced from Chi Van Dang, and firstly reported in Pajic et. al., Int J Cancer, 2000, 87(6), 787-793. P-493-6 cell line is a non-transformed B cell line that can be genetically engineered to have either “low” levels of c-Myc, “medium” levels of c-Myc or “high” levels of c-Myc. The terms “low”, “medium” and “high” are descriptors commonly used in the art and will be readily understood to mean: • i) “low” levels of c-Myc—a level of MYC expression which represents non-proliferating normal cells (i.e. a level of MYC expression not sufficient to cause the cycling of the cells); • ii) “medium” levels of c-Myc—a level of MYC expression which represents normal proliferating cells; and • iii) “high” levels of c-Myc—a level of MYC expression which represents enforced/deregulated expression of c-Myc, typically observed in cancerous cells. […]
For Shep cells, the experiment was performed in a 96 well plate and in technical quadruplicate. […] The fluorescence was measured at 570 nm using an EnVision™ plate reader. […]

SKNAS-ER-N-Myc cell line = assay: CellTiter-Blue assay, SKNAS-ER-N-Myc with or without MYCN induction; assay type: cell-based, human
Excerpt: as §1, §2
For SKNAS cells, the experiment was performed in a 48 well plate and in technical triplicate. […] The fluorescence was measured at 570 nm using an EnVision™ plate reader. […]

[1] = biological target: T1, Plasmodium vivax (Pv) NMT (Plasmodium vivax (strain Salvador I), UniProt A5K1A2)
T1 sequence (A5K1A2 1-410): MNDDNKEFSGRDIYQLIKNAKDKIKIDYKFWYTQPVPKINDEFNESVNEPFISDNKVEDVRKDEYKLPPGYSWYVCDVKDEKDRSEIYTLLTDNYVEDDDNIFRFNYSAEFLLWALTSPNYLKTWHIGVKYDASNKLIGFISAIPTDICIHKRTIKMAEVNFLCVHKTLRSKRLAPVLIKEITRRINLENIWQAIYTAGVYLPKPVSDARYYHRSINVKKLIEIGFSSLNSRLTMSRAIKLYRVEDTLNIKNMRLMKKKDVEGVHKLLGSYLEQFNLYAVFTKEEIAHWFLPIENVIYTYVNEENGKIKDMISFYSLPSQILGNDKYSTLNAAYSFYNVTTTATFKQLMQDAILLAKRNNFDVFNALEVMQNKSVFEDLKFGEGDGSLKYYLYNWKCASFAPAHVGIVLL

Human NMT1 (HsNMT1) = Human NMT1 (HsNMT1) (Homo sapiens, UniProt P30419)
Sequence of Human NMT1 (HsNMT1) (P30419 whole entry, looked up): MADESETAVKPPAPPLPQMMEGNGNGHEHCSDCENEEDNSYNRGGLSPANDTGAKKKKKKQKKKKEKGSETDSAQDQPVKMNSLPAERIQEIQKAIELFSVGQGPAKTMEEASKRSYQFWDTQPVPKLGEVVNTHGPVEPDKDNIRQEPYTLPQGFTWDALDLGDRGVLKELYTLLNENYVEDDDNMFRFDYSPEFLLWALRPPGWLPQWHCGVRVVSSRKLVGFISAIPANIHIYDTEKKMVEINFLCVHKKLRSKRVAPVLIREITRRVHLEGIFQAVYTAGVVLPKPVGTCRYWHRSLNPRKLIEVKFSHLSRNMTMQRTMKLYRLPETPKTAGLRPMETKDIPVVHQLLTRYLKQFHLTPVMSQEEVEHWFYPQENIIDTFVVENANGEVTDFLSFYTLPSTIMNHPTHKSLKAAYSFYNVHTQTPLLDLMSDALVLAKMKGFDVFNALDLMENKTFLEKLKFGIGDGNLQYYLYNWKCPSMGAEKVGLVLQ

[2] = biological target: T1, Plasmodium vivax (Pv) NMT; assay: biochemical
in vitro = details: male, Sprague-Dawley, rat, pooled cryopreserved rat hepatocytes, pH 7.4
[3] = test system: Plasmodium falciparum 3D7; assay: SYBR Green assay, Plasmodium falciparum strain 3D7; assay type: cell-based; details: P. falciparum strain 3D7, 96 h incubation, read-out: Pf EC50 strain 3D7
BL-41 cells [4] = assay: CellTiter-Blue assay, BL-41; assay type: cell-based; details: Homo sapiens, BL41 cell line, 72 hours
Protocol: as §1
(§3) BL-41, Ramos, Raji and A20 cells (obtained from Cell Services at the Crick Institute; cell type of BL-41, Ramos, Raji: Burkitt's Lymphoma; cell type of A20: murine B cell lymphoma cell line) were grown in RPMI-1640 media in 5% CO2 (supplemented with 10% FBS). The cells were seeded in 96-well plates, 24 h prior to treatment. Cell suspensions were prepared by adjusting the cell density to the appropriate concentration (as stated in the Table 9 below) and 50 μL of the cell suspension was transferred to wells B-G in columns 2-11 of a 96-well plate. […]
(§4) 72 hours later, 20 μl/well CellTiter-Blue® (G8081, Promega) were added to the plates according to the manufacturer's protocol, the plate was incubated at 37° C. for 2 or 3-4 h (A20, Ramos and Raji: 2 h; BL-41 and EL-4: 3-4 h), followed by measuring the absorbance per well at 570 nm using an EnVision plate reader. […] The metabolic activity was calculated as a percentage relative to the positive control. The EC50 values were calculated using GraphPad Prism.

EL4 cells = assay: CellTiter-Blue assay, EL4; assay type: cell-based; details: EL4 cell line, 72 hours
Protocol: as §1
Cell suspensions were prepared by adjusting the cell density to the appropriate concentration (as stated in the Table 10 below) and 50 μL of the cell suspension was transferred to wells B-G in columns 2-11 of a 96-well plate.
For each the BL-41, Ramos, Raji, A20 cell lines and EL4, twenty-four hours later, 50 μL of the growth media for the respective cell line (positive control), a mix of Puromycin and Staurosporine (negative controls, final concentration 10 μg/mL and 1 μM respectively) or different concentrations of each Example compound being tested (dilution factor=3, starting at μM, final concentration in the plate starting from 10 μM) were prepared and added to a well of the 96-well plate. The plate was incubated at 37° C. with 5% CO2 level.
72 hours later, 20 μl/well CellTiter-Blue® (G8081, Promega) were added to the plates according to the manufacturer's protocol, the plate was incubated at 37° C. for 2 or 3-4 h (A20, Ramos and Raji: 2 h; BL-41 and EL-4: 3-4 h), followed by measuring the absorbance per well at 570 nm using an EnVision plate reader. The negative control values were subtracted from every value. The metabolic activity was calculated as a percentage relative to the positive control. The EC50 values were calculated using GraphPad Prism.

[5] = test system: P. falciparum Pf3D7^0087/N9; assay: Mouse malaria model, NODscidIL2Rγnull mice engrafted with human erythrocytes; details: for activity compared to untreated control mice: day 7 post-infection
BL-41 cells [6] = assay: Metabolic activity assay (MTS assay) in BL-41 cell line; assay type: cell-based; details: Homo sapiens, 72 h
Raji cells = assay: CellTiter-Blue assay, Raji; assay type: cell-based; details: Homo sapiens, Raji cell line, 72 hours
Protocol: as §1, §3, §4

Ramos cells = assay: CellTiter-Blue assay, Ramos; assay type: cell-based; details: Homo sapiens, Ramos cell line, 72 hours
Protocol: as §1, §3, §4

SU-DHL-10 cells = assay: Cell cytotoxicity in SU-DHL-10 cell line (CellTiter-Glo); assay type: cell-based; details: Homo sapiens, SU-DHL10; CellTiter-Glo, 48 h; read-out: SU-DHL-10 EC50
A20 cells = assay: CellTiter-Blue assay, A20; assay type: cell-based, murine; details: Mus musculus, A20 cell line, 72 hours
Protocol: as §1, §3, §4

[7] = Rat clearance and bioavailability (iv and oral dosing); assay type: in vivo; details: male, Sprague-Dawley, plasma, administered as a single compound
P-493-6 cell line = assay: CellTiter-Blue assay, P-493-6 with low, medium or high c-Myc; assay type: cell-based, human; details: 72 hours, different expression levels of c-Myc induced
Excerpt: as §1, §2

C[C@H]1CN(C)CCN1c1ncc(Cl)c(N2CC(C(=O)NC(C)(C)c3cnc4ccccn34)C2)n1 [Example Compound 2]
metabolic viability of the Shep-ER-N-MYC cell line (Shep-ER-N-Myc cell line): clear loss in metabolic viability when the cells have induction of MYCN | metabolic viability of the SKNAS-ER-N-MYC cell line (SKNAS-ER-N-Myc cell line): clear loss in metabolic viability when the cells have induction of MYCN

CN(C)CCNc1ncc(Cl)c(N2CC(C(=O)NCc3ccc(F)cc3F)C2)n1 [Comparative Example 2]
pIC50 [1]: 5.70

C[C@@H]1CN(c2ncc(F)c(N3CC(C(=O)N(C)C(C)(C)c4cnc5ccccn45)C3)n2)CCN1C [Example 102, 1-{2-[(3R)-3,4-dimethylpiperazin-1-yl]-5-fluoropyrimidin-4-yl}-N-(2-{imidazo[1,2-a]pyridin-3-yl}propan-2-yl)-N-methylazetidine-3-carboxamide]
pIC50 (Human NMT1 (HsNMT1)): 7.14 | pIC50 [2]: 7.62 | half-life at 1 µM (in vitro): 0.242 h | pEC50 [3]: < 6.00

C[C@@H]1CN(c2ncc(Cl)c(N3CC(C(=O)NC(C)(C)c4cnc5ccccn45)C3)n2)CCN1C [Example 3, 1-(5-chloro-2-[(3R)-3,4-dimethylpiperazin-1-yl]pyrimidin-4-yl}-N-(2-{imidazo[1,2-a]pyridin-3-yl}propan-2-yl)azetidine-3-carboxamide]
pEC50 (BL-41 cells [4]): 6.66 | pEC50 (EL4 cells): 5.91 | activity compared to untreated control mice ([5]; 4×3 mg/kg p.o.): 4% | activity compared to untreated control mice ([5]; 4×10 mg/kg p.o.): 37% | mice / smears parasite free ([5]; 4×30 mg/kg p.o., day 7): all mice were parasite-free | activity compared to untreated control mice ([5]; 4×30 mg/kg p.o.): > 99.9% | pEC50 (BL-41 cells [6]): 6.25 | pEC50 (Raji cells): 5.96 | pEC50 (Ramos cells): 5.64 | pIC50 [2]: 8.47 | pEC50 (SU-DHL-10 cells): 6.20 | half-life at 1 µM (in vitro): 2.05 h | pEC50 (A20 cells): 5.16 | pEC50 [3]: 7.96 | half-life ([7]; iv 2 mg/kg, read-out: Rat iv t1/2 (converted)): 4.3 h | bioavailability ([7]; oral 20 mg/kg): 24%

C[C@@H]1CN(c2ncc(Cl)c(N3CC(C(=O)NC(C)(C)c4cnc5ccccn45)C3)n2)CCN1C [Example Compound 3]
metabolic viability of the Shep-ER-N-MYC cell line (Shep-ER-N-Myc cell line): clear loss in metabolic viability when the cells have induction of MYCN | average parasitemia values ([5]; 3 mg/kg po per day on day 3, 4, 5 and 6 post-infection, day 0 post infection): 0.01% | average parasitemia values ([5]; 3 mg/kg po per day on day 3, 4, 5 and 6 post-infection, day 3 post infection): 1.49% | average parasitemia values ([5]; 3 mg/kg po per day on day 3, 4, 5 and 6 post-infection, day 4 post infection): 4.77% | average parasitemia values ([5]; 3 mg/kg po per day on day 3, 4, 5 and 6 post-infection, day 5 post infection): 6.73% | average parasitemia values ([5]; 3 mg/kg po per day on day 3, 4, 5 and 6 post-infection, day 6 post infection): 10.66% | average parasitemia values ([5]; 3 mg/kg po per day on day 3, 4, 5 and 6 post-infection, day 7 post infection): 11.25% | average parasitemia values ([5]; 10 mg/kg po per day on day 3, 4, 5 and 6 post-infection, day 0 post infection): 0.01% | average parasitemia values ([5]; 10 mg/kg po per day on day 3, 4, 5 and 6 post-infection, day 3 post infection): 1.37% | average parasitemia values ([5]; 10 mg/kg po per day on day 3, 4, 5 and 6 post-infection, day 4 post infection): 2.40% | average parasitemia values ([5]; 10 mg/kg po per day on day 3, 4, 5 and 6 post-infection, day 5 post infection): 4.21% | average parasitemia values ([5]; 10 mg/kg po per day on day 3, 4, 5 and 6 post-infection, day 6 post infection): 6.09% | average parasitemia values ([5]; 10 mg/kg po per day on day 3, 4, 5 and 6 post-infection, day 7 post infection): 7.35% | average parasitemia values ([5]; 30 mg/kg po per day on day 3, 4, 5 and 6 post-infection, day 0 post infection): 0.01% | average parasitemia values ([5]; 30 mg/kg po per day on day 3, 4, 5 and 6 post-infection, day 3 post infection): 0.60% | average parasitemia values ([5]; 30 mg/kg po per day on day 3, 4, 5 and 6 post-infection, day 4 post infection): 0.18% | average parasitemia values ([5]; 30 mg/kg po per day on day 3, 4, 5 and 6 post-infection, day 5 post infection): 0.02% | average parasitemia values ([5]; 30 mg/kg po per day on day 3, 4, 5 and 6 post-infection, day 6 post infection): 0.01% | average parasitemia values ([5]; 30 mg/kg po per day on day 3, 4, 5 and 6 post-infection, day 7 post infection): 0.00* % | metabolic viability of the P-493-6 cell line (P-493-6 cell line): clear MYC-dependent loss in metabolic viability | metabolic viability of the SKNAS-ER-N-MYC cell line (SKNAS-ER-N-Myc cell line): clear loss in metabolic viability when the cells have induction of MYCN

Cc1cnc(CNC(=O)C2CN(c3nc(NCCN(C)C)ncc3Cl)C2)cn1 [Comparative Example 1, reference compound]
pIC50 (Human NMT1 (HsNMT1)): 4.34 | pIC50 [1]: 5.08
